From patent EP4707280A1, “1,4-CINEOLE DERIVATIVE AND INTERMEDIATE THEREOF, HERBICIDE CONTAINING SAID DERIVATIVE AS ACTIVE INGREDIENT, METHOD FOR USING HERBICIDE, AND METHOD FOR PREPARING AGROCHEMICAL COMPOSITION” (HOKKO CHEMICAL INDUSTRY CO., LTD., priority 2023, dated 2024)

Assays:
Assay type in all cases: in vivo
Scirpus juncoides [1] = assay: Test Example 2: herbicidal effect test by application during growth period of paddy rice; conditions: Schoenoplectiella juncoides; 120 g per 10 ares; applied seven days after sowing, flooded pots; 14 days after application; read-out: weed inhibition rate
Method in brief: (§1)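 Flooded paddy pot test, greenhouse. Seeds 30/species, 0–1 cm depth, water ~3 cm. EC diluted in water, dropper-applied 7 d post-sowing at 120 g a.i./10 a. Inhibition rate (%) read 14 d after treatment; n=2.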

[2] = tested on: Echinochloa crus-galli var. formosensis; assay: as above; conditions: Echinochloa crus-galli; 120 g per 10 ares; applied seven days after sowing, flooded pots; 14 days after application; read-out: weed inhibition rate
Method in brief: as §1

Scirpus juncoides [3] = assay: Test Example 1: herbicidal effect test by soil application in paddy rice; conditions: Schoenoplectiella juncoides, soil, 336 h; 120 g active ingredient per 10 ares; applied immediately after sowing, flooded pots; 14 days after application; read-out: weed inhibition rate
Method in brief: (§2)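 Weeds sown 0–1 cm deep (30 seeds each) into fertilized, puddled paddy soil in Wagner pots. Pots are flooded immediately, water held near 3 cm, and the diluted emulsifiable concentrate is dripped in at once, delivering 120 g active ingredient per 10 ares under glass-greenhouse management.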

[4] = tested on: Echinochloa crus-galli var. formosensis; assay: as above; conditions: Echinochloa crus-galli, soil, 336 h; 120 g active ingredient per 10 ares; applied immediately after sowing, flooded pots; 14 days after application; read-out: weed inhibition rate
Method in brief: as §2

Echinochloa crus-galli [5] = assay: Test Example 4: herbicidal effect test by stem and leaf treatment in upland field; conditions: Echinochloa crus-galli; 120 g per 10 ares; sprayed seven days after sowing, upland soil; 14 days after application; read-out: weed inhibition rate
Digitaria ciliaris [6] = assay: Test Example 3: herbicidal effect test by soil application in upland field; conditions: Digitaria ciliaris, 120 g per 10 ares, sprayed one day after sowing, 14 days after application, read-out: weed inhibition rate
Method in brief: (§3)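 Pre-emergence test: seeds mixed into top 1 cm of alluvial loam upland soil in pots; emulsifiable concentrate diluted in water sprayed on soil one day after sowing at 100 L/10 a, 120 g a.i./10 a. Weed inhibition rate (%) scored at 14 days, in duplicate.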

Echinochloa crus-galli [7] = assay: as above; conditions: Echinochloa crus-galli, 120 g per 10 ares, sprayed one day after sowing, 14 days after application, read-out: weed inhibition rate
Method in brief: as §3

Digitaria ciliaris [8] = assay: Test Example 8: herbicidal effect test by stem and leaf treatment in upland field (low dose); conditions: Digitaria ciliaris; 7.5 g per 10 ares; sprayed seven days after sowing, upland soil; 14 days after application; read-out: weed inhibition rate
Echinochloa crus-galli [9] = assay: as above; conditions: Echinochloa crus-galli; 7.5 g per 10 ares; sprayed seven days after sowing, upland soil; 14 days after application; read-out: weed inhibition rate
Digitaria ciliaris [10] = assay: Test Example 4: herbicidal effect test by stem and leaf treatment in upland field; conditions: Digitaria ciliaris; 120 g per 10 ares; sprayed seven days after sowing, upland soil; 14 days after application; read-out: weed inhibition rate
Digitaria ciliaris [11] = assay: Test Example 7: herbicidal effect test by soil application in upland field (low dose); conditions: Digitaria ciliaris, 7.5 g per 10 ares, sprayed one day after sowing, 14 days after application, read-out: weed inhibition rate
Method in brief: (§4)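 Read-out: weed inhibition rate (%) at 14 d post-treatment, duplicate pots per concentration. Seeds sown in the top 1 cm of upland alluvial loam; emulsifiable concentrate diluted in water and sprayed on the soil surface 1 d after sowing at 7.5 g a.i./10 a (100 L/10 a spray volume).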

Echinochloa crus-galli [12] = assay: as above; conditions: Echinochloa crus-galli, 7.5 g per 10 ares, sprayed one day after sowing, 14 days after application, read-out: weed inhibition rate
Method in brief: as §4

[13] = tested on: Echinochloa crus-galli var. formosensis; assay: Test Example 6: herbicidal effect test by application during growth period of paddy rice (low dose); conditions: Echinochloa crus-galli; 7.5 g per 10 ares; applied seven days after sowing, flooded pots; 14 days after application; read-out: weed inhibition rate
Method in brief: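 Paddy soil in flooded Wagner pots (about 3 cm water), weeds sown at 0–1 cm, 30 seeds each, grown in a glass greenhouse. Seven days after sowing, water-diluted emulsifiable concentrate was dropped into the water at 7.5 g active ingredient per 10 ares. Weed inhibition rate (%) was scored 14 days after application, in duplicate.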

[14] = tested on: Echinochloa crus-galli var. formosensis; assay: Test Example 5: herbicidal effect test by soil application in paddy rice (low dose); conditions: Echinochloa crus-galli, soil, 336 h; 7.5 g per 10 ares; applied immediately after sowing, flooded pots; 14 days after application; read-out: weed inhibition rate
Method in brief: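 Pre-emergence paddy test: seeds sown 0–1 cm (30 each), pots flooded ~3 cm, greenhouse. EC dilution dropped into water right after sowing, 7.5 g a.i./10 a. Duplicate pots; weed inhibition rate (%) by formula, day 14.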

CC(C)[C@]12C[C@@H](OCc3c(F)cccc3Br)[C@](C)(C[C@@H]1I)O2 [1-1614, (1R,2S,4S,5R)-5-[(2-bromo-6-fluoro-phenyl)methoxy]-2-iodo-1-isopropyl-4-methyl-7-oxabicyclo[2.2.1]heptane]
≥ 80%: inhibition at 1200 g/ha (Scirpus juncoides [1]) | inhibition at 1200 g/ha [2] | pest or weed control at 1200 g/ha (Scirpus juncoides [3]) | pest or weed control at 1200 g/ha [4] | inhibition at 1200 g/ha (Echinochloa crus-galli [5]) | inhibition at 1200 g/ha (Digitaria ciliaris [6]) | inhibition at 1200 g/ha (Echinochloa crus-galli [7]) | inhibition at 75 g/ha (Digitaria ciliaris [8]) | inhibition at 75 g/ha (Echinochloa crus-galli [9]) | inhibition at 1200 g/ha (Digitaria ciliaris [10]) | inhibition at 75 g/ha (Digitaria ciliaris [11]) | inhibition at 75 g/ha (Echinochloa crus-galli [12]) | inhibition at 75 g/ha [13] | inhibition at 75 g/ha [14]

CC(C)C12CC(OCc3cccs3)C(C)(CC1Cl)O2 (stereo not drawn) [1-1323, 2-chloro-1-isopropyl-4-methyl-5-(2-thienylmethoxy)-7-oxabicyclo[2.2.1]heptane]
≥ 80%: inhibition at 1200 g/ha (Scirpus juncoides [1]) | inhibition at 1200 g/ha [2] | pest or weed control at 1200 g/ha (Scirpus juncoides [3]) | pest or weed control at 1200 g/ha [4] | inhibition at 1200 g/ha (Echinochloa crus-galli [5]) | inhibition at 1200 g/ha (Digitaria ciliaris [6]) | inhibition at 1200 g/ha (Echinochloa crus-galli [7]) | inhibition at 75 g/ha (Digitaria ciliaris [8]) | inhibition at 75 g/ha (Echinochloa crus-galli [9]) | inhibition at 1200 g/ha (Digitaria ciliaris [10]) | inhibition at 75 g/ha (Digitaria ciliaris [11]) | inhibition at 75 g/ha (Echinochloa crus-galli [12]) | inhibition at 75 g/ha [13] | inhibition at 75 g/ha [14]

CC(C)[C@]12CC(OCc3ccccc3)[C@](C)(C[C@@H]1Cl)O2 (mixture of isomers) [1-8, (1R,2S,4S,SR)-5-benzyloxy-2-chloro-1-isopropyl-4-methyl-7-oxabicyclo[2.2.1]heptane]
≥ 80%: inhibition at 1200 g/ha (Scirpus juncoides [1]) | inhibition at 1200 g/ha [2] | pest or weed control at 1200 g/ha (Scirpus juncoides [3]) | pest or weed control at 1200 g/ha [4] | inhibition at 1200 g/ha (Echinochloa crus-galli [5]) | inhibition at 1200 g/ha (Digitaria ciliaris [6]) | inhibition at 1200 g/ha (Echinochloa crus-galli [7]) | inhibition at 75 g/ha (Digitaria ciliaris [8]) | inhibition at 75 g/ha (Echinochloa crus-galli [9]) | inhibition at 1200 g/ha (Digitaria ciliaris [10]) | inhibition at 75 g/ha (Digitaria ciliaris [11]) | inhibition at 75 g/ha (Echinochloa crus-galli [12]) | inhibition at 75 g/ha [13] | inhibition at 75 g/ha [14]

CC(C)[C@]12C[C@@H](OCc3c(Cl)cccc3Cl)[C@](C)(C[C@@H]1Cl)O2 [1-652, (1R,2S,4S,5R)-2-chloro-5-[(2,6-dichlorophenyl)methoxy]-1-isopropyl-4-methyl-7-oxabicyclo[2.2.1]heptane]
≥ 80%: inhibition at 1200 g/ha (Scirpus juncoides [1]) | inhibition at 1200 g/ha [2] | pest or weed control at 1200 g/ha (Scirpus juncoides [3]) | pest or weed control at 1200 g/ha [4] | inhibition at 1200 g/ha (Echinochloa crus-galli [5]) | inhibition at 1200 g/ha (Digitaria ciliaris [6]) | inhibition at 1200 g/ha (Echinochloa crus-galli [7]) | inhibition at 75 g/ha (Digitaria ciliaris [8]) | inhibition at 75 g/ha (Echinochloa crus-galli [9]) | inhibition at 1200 g/ha (Digitaria ciliaris [10]) | inhibition at 75 g/ha (Digitaria ciliaris [11]) | inhibition at 75 g/ha (Echinochloa crus-galli [12]) | inhibition at 75 g/ha [13] | inhibition at 75 g/ha [14]

CC#CCO[C@@H]1C[C@]2(C(C)C)O[C@@]1(C)C[C@@H]2Cl [1-614, (1R,2S,4S,5R)-5-but-2-ynoxy-2-chloro-1-isopropyl-4-methyl-7-oxabicyclo[2.2.1]heptane]
≥ 80%: inhibition at 1200 g/ha (Scirpus juncoides [1]) | inhibition at 1200 g/ha [2] | pest or weed control at 1200 g/ha (Scirpus juncoides [3]) | pest or weed control at 1200 g/ha [4] | inhibition at 1200 g/ha (Echinochloa crus-galli [5]) | inhibition at 1200 g/ha (Digitaria ciliaris [6]) | inhibition at 1200 g/ha (Echinochloa crus-galli [7]) | inhibition at 75 g/ha (Digitaria ciliaris [8]) | inhibition at 75 g/ha (Echinochloa crus-galli [9]) | inhibition at 1200 g/ha (Digitaria ciliaris [10]) | inhibition at 75 g/ha (Digitaria ciliaris [11]) | inhibition at 75 g/ha (Echinochloa crus-galli [12]) | inhibition at 75 g/ha [13] | inhibition at 75 g/ha [14]

CC(C)C12CC(OCc3cccs3)C(C)(CC1I)O2 (stereo not drawn) [1-1456, 2-iodo-1-isopropyl-4-methyl-5-(2-thienylmethoxy)-7-oxabicyclo[2.2.1]heptane]
≥ 80%: inhibition at 1200 g/ha (Scirpus juncoides [1]) | inhibition at 1200 g/ha [2] | pest or weed control at 1200 g/ha (Scirpus juncoides [3]) | pest or weed control at 1200 g/ha [4] | inhibition at 1200 g/ha (Echinochloa crus-galli [5]) | inhibition at 1200 g/ha (Digitaria ciliaris [6]) | inhibition at 1200 g/ha (Echinochloa crus-galli [7]) | inhibition at 75 g/ha (Digitaria ciliaris [8]) | inhibition at 75 g/ha (Echinochloa crus-galli [9]) | inhibition at 1200 g/ha (Digitaria ciliaris [10]) | inhibition at 75 g/ha (Digitaria ciliaris [11]) | inhibition at 75 g/ha (Echinochloa crus-galli [12]) | inhibition at 75 g/ha [13] | inhibition at 75 g/ha [14]
